Test system: CD4+ T-cell clones specific for modified GAD65 epitopes
Experiment: T-cell clone proliferation assay, [3H]-thymidine incorporation
Format: cell-based, human
Conditions: GAD154E,164E-specific T cells (data not shown)

TTG-treated GAD: GAD65 protein unfolded by heating and treated with transglutaminase
proliferation in response to treated GAD protein: not able to proliferate
